Key:
[1] = mn = molality of the nth substance listed, in mol/kg; settings: 100 kPa, Liquid, Capillary tube (Ostwald / Ubbelohde) method
[2] = xn = mol fraction of the nth substance listed; settings: 100 kPa, Liquid, Vibrating tube method

CC(C)(CO)[C@@H](O)C(=O)NCCCO [d-Panthenol] + O
Settings	mass density [kg/m3]	viscosity [mPa·s]
[1], 293.15 K, m1 = 0.01	–	1.009
[1], 293.15 K, m1 = 0.05	–	1.039
[1], 293.15 K, m1 = 0.1001	–	1.078
[1], 293.15 K, m1 = 0.1989	–	1.159
[1], 293.15 K, m1 = 0.3002	–	1.246
[1], 293.15 K, m1 = 0.4006	–	1.334
[1], 293.15 K, m1 = 0.4997	–	1.421
[1], 298.15 K, m1 = 0.01	–	0.896
[1], 298.15 K, m1 = 0.05	–	0.923
[1], 298.15 K, m1 = 0.1001	–	0.957
[1], 298.15 K, m1 = 0.1989	–	1.027
[1], 298.15 K, m1 = 0.3002	–	1.1
[1], 298.15 K, m1 = 0.4006	–	1.173
[1], 298.15 K, m1 = 0.4997	–	1.253
[1], 303.15 K, m1 = 0.01	–	0.803
[1], 303.15 K, m1 = 0.05	–	0.826
[1], 303.15 K, m1 = 0.1001	–	0.855
[1], 303.15 K, m1 = 0.1989	–	0.917
[1], 303.15 K, m1 = 0.3002	–	0.98
[1], 303.15 K, m1 = 0.4006	–	1.045
[1], 303.15 K, m1 = 0.4997	–	1.105
[1], 308.15 K, m1 = 0.01	–	0.724
[1], 308.15 K, m1 = 0.05	–	0.744
[1], 308.15 K, m1 = 0.1001	–	0.769
[1], 308.15 K, m1 = 0.1989	–	0.822
[1], 308.15 K, m1 = 0.3002	–	0.877
[1], 308.15 K, m1 = 0.4006	–	0.932
[1], 308.15 K, m1 = 0.4997	–	0.99
[1], 313.15 K, m1 = 0.01	–	0.657
[1], 313.15 K, m1 = 0.05	–	0.675
[1], 313.15 K, m1 = 0.1001	–	0.697
[1], 313.15 K, m1 = 0.1989	–	0.743
[1], 313.15 K, m1 = 0.3002	–	0.791
[1], 313.15 K, m1 = 0.4006	–	0.839
[1], 313.15 K, m1 = 0.4997	–	0.887
[2], 293.15 K, x1 = 0.0036	1004.95	–
[2], 293.15 K, x1 = 0.0054	1008.18	–
[2], 293.15 K, x1 = 0.0071	1011.3	–
[2], 293.15 K, x1 = 0.0089	1014.36	–
[2], 293.15 K, x1 = 0.0107	1017.42	–
[2], 293.15 K, x1 = 0.0124	1020.22	–
[2], 293.15 K, x1 = 0.0142	1023.06	–
[2], 293.15 K, x1 = 0.0248	1039.61	–
[2], 293.15 K, x1 = 0.031	1049.02	–
[2], 293.15 K, x1 = 0.0376	1055.92	–
[2], 293.15 K, x1 = 0.0501	1068.98	–
[2], 293.15 K, x1 = 0.0996	1102.82	–
[2], 293.15 K, x1 = 0.1997	1134.36	–
[2], 293.15 K, x1 = 0.2495	1141.94	–
[2], 293.15 K, x1 = 0.2871	1146.56	–
[2], 293.15 K, x1 = 0.342	1151.05	–
[2], 293.15 K, x1 = 0.4007	1154.55	–
[2], 293.15 K, x1 = 0.4958	1158.52	–
[2], 293.15 K, x1 = 0.5944	1160.64	–
[2], 293.15 K, x1 = 0.708	1162.75	–
[2], 293.15 K, x1 = 0.8067	1163.58	–
[2], 293.15 K, x1 = 0.8753	1164.26	–
[2], 293.15 K, x1 = 1	1165.18	–
[2], 298.15 K, x1 = 0.0036	1003.69	–
[2], 298.15 K, x1 = 0.0054	1006.88	–
[2], 298.15 K, x1 = 0.0071	1009.95	–
[2], 298.15 K, x1 = 0.0089	1012.97	–
[2], 298.15 K, x1 = 0.0107	1016	–
[2], 298.15 K, x1 = 0.0124	1018.76	–
[2], 298.15 K, x1 = 0.0142	1021.57	–
[2], 298.15 K, x1 = 0.0248	1037.84	–
[2], 298.15 K, x1 = 0.031	1046.69	–
[2], 298.15 K, x1 = 0.0376	1053.81	–
[2], 298.15 K, x1 = 0.0501	1066.6	–
[2], 298.15 K, x1 = 0.0996	1099.84	–
[2], 298.15 K, x1 = 0.1997	1130.9	–
[2], 298.15 K, x1 = 0.2495	1138.2	–
[2], 298.15 K, x1 = 0.2871	1142.9	–
[2], 298.15 K, x1 = 0.342	1147.23	–
[2], 298.15 K, x1 = 0.4007	1150.87	–

From the NIST ThermoML archive (doi:10.1016/j.jct.2017.10.014)
